The results in this text go back to BindingDB's records for doi:10.7270/Q2MP51PC (Pcmd, 2008).

Each structure is given as a SMILES string.

The assay addresses T1, Complement C1s subcomponent (Homo sapiens, UniProt P09871).
T1 sequence (P09871 whole entry): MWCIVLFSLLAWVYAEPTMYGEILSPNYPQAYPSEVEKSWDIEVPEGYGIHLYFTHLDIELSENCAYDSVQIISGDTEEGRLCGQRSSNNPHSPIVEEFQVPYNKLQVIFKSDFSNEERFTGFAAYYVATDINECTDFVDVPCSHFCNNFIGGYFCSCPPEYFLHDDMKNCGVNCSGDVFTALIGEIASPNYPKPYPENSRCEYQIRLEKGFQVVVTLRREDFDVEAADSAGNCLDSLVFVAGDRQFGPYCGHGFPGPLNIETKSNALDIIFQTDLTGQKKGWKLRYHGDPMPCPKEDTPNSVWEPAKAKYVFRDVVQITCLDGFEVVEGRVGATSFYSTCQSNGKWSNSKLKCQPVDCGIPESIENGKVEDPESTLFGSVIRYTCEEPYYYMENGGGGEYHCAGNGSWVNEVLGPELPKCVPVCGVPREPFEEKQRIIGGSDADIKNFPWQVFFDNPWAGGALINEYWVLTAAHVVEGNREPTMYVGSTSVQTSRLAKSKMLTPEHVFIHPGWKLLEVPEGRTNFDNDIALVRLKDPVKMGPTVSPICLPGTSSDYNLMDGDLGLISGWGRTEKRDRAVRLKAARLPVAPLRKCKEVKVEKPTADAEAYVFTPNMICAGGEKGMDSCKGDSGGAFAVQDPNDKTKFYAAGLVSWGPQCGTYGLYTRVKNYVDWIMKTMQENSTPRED
Kind of assay: C1s inhibitor IC50 values, dose response, biochemical (AID 787).
`COC(=O)c1ccccc1NC(=O)c1cc(-c2ccc(OC)c(OC)c2)on1` [2-[[5-(3,4-dimethoxyphenyl)isoxazole-3-carbonyl]amino]benzoic acid methyl ester] had an IC50 greater than 50 µM. Take `CC(=O)Nc1ccc(NC(C)=O)s1` [MLS000105054]: the IC50 was greater than 50 µM. For `COc1cc(OC)cc(C(=O)Nc2ncc3c(n2)CC(C)CC3=O)c1` (stereo not drawn) [3,5-dimethoxy-N-(7-methyl-5-oxidanylidene-7,8-dihydro-6H-quinazolin-2-yl)benzamide] the value was greater than 50 µM; for `Cc1c(NC(=O)C2Cc3ccccc3CN2C(=O)c2ccco2)c(=O)n(-c2ccccc2)n1C` (stereo not drawn) [2-(2-furoyl)-N-(3-keto-1,5-dimethyl-2-phenyl-3-pyrazolin-4-yl)-3,4-dihydro-1H-isoquinoline-3-carboxamide], greater than 50 µM; for `COc1ccc(C(=O)OCn2nnc3ccccc3c2=O)cc1OC` [(4-oxidanylidene-1,2,3-benzotriazin-3-yl)methyl 3,4-dimethoxybenzoate], greater than 50 µM. The figure for `O=C(Oc1ccc(Cl)cc1-n1c(O)ccc1O)c1ccco1` [4-chloro-2-(2,5-dioxo-1-pyrrolidinyl)phenyl 2-furoate] is greater than 50 µM. The figure for `CCOC(=O)c1c(-c2ccc(C)o2)csc1NC(=O)CN1CCN(CC)CC1` [2-[[2-(4-ethyl-1-piperazinyl)-1-oxoethyl]amino]-4-(5-methyl-2-furanyl)-3-thiophenecarboxylic acid ethyl ester] is greater than 50 µM. Turning to `CC(C)(C)c1cc(C(=O)NCc2ccccc2)ccn1` [2-tert-butyl-N-(phenylmethyl)-4-pyridinecarboxamide], the IC50 is greater than 50 µM. The figure for `CCSc1ccccc1C(=O)n1nnc2ccccc21` is 31 µM; for `O=C(CN1CCN(CC(=O)Nc2ccccn2)CC1)Nc1ccccn1` [2-[4-[2-keto-2-(2-pyridylamino)ethyl]piperazino]-N-(2-pyridyl)acetamide] it is greater than 50 µM; for `CCOc1ccc(-n2c(O)cc(N3CCN(c4ccccc4F)CC3)c2O)cc1` [1-(4-ethoxyphenyl)-3-[4-(2-fluorophenyl)-1-piperazinyl]-2,5-pyrrolidinedione] it is greater than 50 µM. The figure for `O=C(Nc1nccs1)c1cccc(S(=O)(=O)N2CCOCC2)c1` [3-(4-morpholinylsulfonyl)-N-(2-thiazolyl)benzamide] is greater than 50 µM.

Consider `CCc1nn(C(C)C(=O)NCCN2CCN(c3cccc(C)c3C)CC2)c(=O)c2cc3occc3n12` (stereo not drawn) [SMR000029605], for which the IC50 is greater than 50 µM. With `O=C(c1ccco1)N1CCN(S(=O)(=O)c2ccc(S(=O)(=O)NC3CCCCC3)cc2)CC1` [MLS000068710], the IC50 was greater than 50 µM. Regarding `COc1ccccc1Nc1nc(-c2cccs2)cs1` [(2-methoxyphenyl)-[4-(2-thienyl)thiazol-2-yl]amine], the IC50 is greater than 50 µM. The molecule `CCn1c(CCn2ccnc2C)n[nH]c1=S` [4-ethyl-5-[2-(2-methyl-1H-imidazol-1-yl)ethyl]-2,4-dihydro-3H-1,2,4-triazole-3-thione] registered an IC50 greater than 50 µM. `CCC(=O)Nc1cccc(-c2nc3ccccc3c(=O)o2)c1` [MLS000090237] yielded a concentration for half-maximal inhibition (IC50) of 34.7 µM. For `COc1cccc(N2C(=O)N(c3ccccc3Cl)C3CS(=O)(=O)CC32)c1` (stereo not drawn) [1-(2-chlorophenyl)-3-(3-methoxyphenyl)tetrahydro-1H-thieno[3,4-d]imidazol-2(3H)-one 5,5-dioxide] the value was greater than 50 µM; for `O=c1c(-c2ccco2)[n+]([O-])c2ccccc2n1OCc1ccccn1` [3-(2-furanyl)-4-oxido-1-(2-pyridinylmethoxy)-2-quinoxalin-4-iumone], 37.9 µM. In turn, `Cc1nnc(SC(=O)N2c3ccccc3Sc3ccccc32)s1` [10-phenothiazinecarbothioic acid S-(5-methyl-1,3,4-thiadiazol-2-yl) ester] had a concentration for half-maximal inhibition (IC50) greater than 50 µM. The molecule `CCC(=O)Nc1ccc(C(=O)Nc2ccc3c(c2)OCO3)cc1` [MLS000085289] yielded a concentration for half-maximal inhibition (IC50) greater than 50 µM. For `COC(=O)COc1cccc(NC(=O)c2ccccc2)c1` [2-(3-benzamidophenoxy)acetic acid methyl ester] the value was greater than 50 µM; for `CC1CCN(S(=O)(=O)c2cccc(C(=O)Nc3nccs3)c2)CC1` [3-(4-methylpiperidin-1-yl)sulfonyl-N-(1,3-thiazol-2-yl)benzamide], greater than 50 µM. The figure for `COc1ccc(C(=O)SC2=NCCS2)cc1OC` [3,4-dimethoxybenzenecarbothioic acid S-(4,5-dihydrothiazol-2-yl) ester] is greater than 50 µM. The figure for `COc1ccc(-c2nc(SC)n(C(=O)c3ccco3)n2)cc1` [1-(2-furoyl)-3-(4-methoxyphenyl)-5-(methylthio)-1H-1,2,4-triazole] is 15.6 µM; for `CCc1ccccc1N(C(=O)c1cccs1)C1C=CS(=O)(=O)C1` (stereo not drawn) [MLS000093437] it is greater than 50 µM; for `CC(C)NS(=O)(=O)c1cc(C(=O)O)ccc1Cl` [4-chloranyl-3-(propan-2-ylsulfamoyl)benzoic acid] it is greater than 50 µM.

`O=C(Nc1ccc2oc(=O)ccc2c1)c1cccnc1` [MLS000075075] returned an IC50 greater than 50 µM.
